Results: patent publication US9731035B2, “Method of imaging osteoarthritis using a folate conjugate” (Purdue Research Foundation, priority 2005, dated 2017)
Values belong to the compound of their own block, whether it stands above or below them. *1 amine or outer side, *2 acyl side, *3 side chain or, on linkers, in order; H or OH if unused. Where a SMILES comes first, the peptide text is derived from it. The star is where a group is joined. X1 = COc1ccc2c(c1)c(CC(=O)OCCS*)c(C)n2C(=O)c1ccc(Cl)cc1; Pteroyl = Nc1nc2ncc(CNc3ccc(C(=O)*)cc3)nc2c(=O)[nH]1; γGlu = O=C(O)[CH](CCC(=O)[*:2])N[*:1]

How the values were obtained:
[1] = target: T1, folate receptors on white blood cells from mice (Mus musculus, UniProt Q05685); experiment: 3H-folic acid binding to white blood cells from mice; conditions: with/without 100-fold excess folic acid, FIG. 4
T1 construct: endogenous in cells; host or cells: mouse white blood cells
T1 sequence (Q05685 21-227): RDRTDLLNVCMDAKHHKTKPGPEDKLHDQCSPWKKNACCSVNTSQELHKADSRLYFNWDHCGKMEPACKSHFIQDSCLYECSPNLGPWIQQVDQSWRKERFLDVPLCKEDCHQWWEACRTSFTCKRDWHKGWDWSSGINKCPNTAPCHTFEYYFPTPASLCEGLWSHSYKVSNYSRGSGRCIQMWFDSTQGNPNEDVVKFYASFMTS
Protocol: (§1) All binding experiments were conducted on ice or in a 4° C. cold room unless indicated otherwise. Folate conjugate and ^3H-folic acid binding studies were performed by incubating cells with a 100 nM concentration of the indicated folate dye conjugate for 45 minutes. […] An acidic wash to strip cell-surface bound folate conjugates was performed on indicated samples by washing the cell sample with a 150 mM NaCl solution adjusted to pH 3.5 with acetic acid. All antibody labeling was optimized by titration. Optimal labeling was most often achieved with a 1/1000-1/10,000 dilution of the manufacture's stock antibody solution. After cells were labeled with folate dye conjugates and/or antibodies, the samples were washed twice with PBS to remove non-specific binding. Analysis of folate conjugate binding and/or antibody binding was analyzed by confocal microscopy or by flow cytometry (FCS Calibur, BD, Franklin Lakes, N.J.). After washing ^3H-folic acid samples to remove non-specific binding, cells were dissolved in 0.25M NaOH and radioactivity was counted on a scintillation counter.

[2] = system: folate receptors on white blood cells from dogs; experiment: 3H-folic acid binding to white blood cells from dogs; parameters: species or system dog; conditions: with/without 100-fold excess folic acid, FIG. 4
Protocol: as §1

[3] = system: folate receptors on peripheral blood monocytes of dogs; experiment: Folate dye conjugate binding to peripheral blood monocytes from dogs, flow cytometry; parameters: species or system dog; conditions: with/without 100-fold excess folic acid, FIG. 5, FIG. 6
Protocol: (§2) An 8-10 ml sample of whole blood was collected in EDTA anticoagulant tubes. PBMCs were isolated from the blood samples using Ficoll-Paque Plus (Amersham Biosciences, Piscataway, N.J.) and by following the manufacture's provided protocol. Briefly, the blood sample was diluted 50:50 with a balanced salt solution (described below). 8 mL of Ficoll-Paque Plus was added to a 50 ml conical centrifuge tube. The diluted blood sample (approximately 16-20 ml) was layered on top of the Ficoll gradient. The sample was centrifuged at 400×g for 30 minutes at room temperature. Following centrifugation, the plasma layer (top clear layer) was removed using a pipette leaving the lymphocyte/monocyte layer undisturbed. The hazy cell layer immediately below the plasma layer was removed, being careful to remove the entire cell interface but a minimum amount of the Ficoll layer. […]
(§3) All binding experiments were conducted on ice or in a 4° C. cold room unless indicated otherwise. […] Analysis of folate conjugate binding and/or antibody binding was analyzed by confocal microscopy or by flow cytometry (FCS Calibur, BD, Franklin Lakes, N.J.). After washing ^3H-folic acid samples to remove non-specific binding, cells were dissolved in 0.25M NaOH and radioactivity was counted on a scintillation counter.

[4] = system: folate receptors on peripheral blood monocytes of horses; experiment: Folate-FITC binding to peripheral blood monocytes from horses, flow cytometry; parameters: species or system horse; conditions: with/without 100-fold excess folic acid, FIG. 5
Protocol: as §2, §3

[5] = target: T2, folate receptors on human peripheral blood monocytes (Homo sapiens, UniProt P14207); experiment: Folate dye conjugate binding to human peripheral blood monocytes, flow cytometry; conditions: for percentage of human peripheral blood monocytes bound: CD11b+ monocytes, FIG. 2; for binding to human peripheral blood monocytes: FIG. 1
T2 construct: endogenous in cells; host or cells: human peripheral blood monocytes (PBMC isolated by Ficoll-Paque)
T2 sequence (P14207 17-230): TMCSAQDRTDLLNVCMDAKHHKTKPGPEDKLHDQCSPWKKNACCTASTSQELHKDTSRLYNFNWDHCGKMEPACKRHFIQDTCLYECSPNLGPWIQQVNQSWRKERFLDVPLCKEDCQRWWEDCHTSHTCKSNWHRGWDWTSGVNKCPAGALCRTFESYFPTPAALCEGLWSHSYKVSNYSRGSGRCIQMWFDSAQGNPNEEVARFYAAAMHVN
Protocol: An 8-10 ml sample of whole blood was collected in EDTA anticoagulant tubes. PBMCs were isolated from the blood samples using Ficoll-Paque Plus (Amersham Biosciences, Piscataway, N.J.) and by following the manufacture's provided protocol. Briefly, the blood sample was diluted 50:50 with a balanced salt solution (described below). 8 mL of Ficoll-Paque Plus was added to a 50 ml conical centrifuge tube. The diluted blood sample (approximately 16-20 ml) was layered on top of the Ficoll gradient. The sample was centrifuged at 400×g for 30 minutes at room temperature. Following centrifugation, the plasma layer (top clear layer) was removed using a pipette leaving the lymphocyte/monocyte layer undisturbed. The hazy cell layer immediately below the plasma layer was removed, being careful to remove the entire cell interface but a minimum amount of the Ficoll layer. The isolated cells were put into a sterile 50 ml conical centrifuge tube and diluted 3-fold (vol/vol) using the balanced salt solution. The resulting cell solution was gently mixed and centrifuged at 100×g for 10 minutes at room temperature to pellet the cells. The supernatant was removed and the cells were resuspended in folate deficient RPMI 1640 medium supplemented with 10% heat-inactivated FBS, penicillin (100 IU/ml) and streptomycin (100 μg/ml). Cells were seeded in microcentrifuge tubes or microscopy chambers as dictated by the experiment.
as §1

[6] = system: adjuvant-induced arthritis; experiment: Adjuvant-induced arthritis in rats, paw swelling; format: in vivo, rat
Protocol: Arthritis was induced in 150-200 g female Lewis rats (Harlan, Indianapolis, Ind.), n=2-5/dose group. Briefly, 0.5 mg of heat-killed […] butericum, suspended in mineral oil (5 mg/ml), was injected on day 0 into the left hind foot of rats following anesthesia with ketamine and xylazine. All treated animals developed arthritis, as evidenced by dramatic swelling in the injected paw, progressive swelling in all noninjected limbs due to the systemic progression of arthritis, and radiographic analysis of affected limbs. All rats were maintained on a folate-deficient diet (DYETS, Inc., Bethlehem, Pa.) for 3 weeks prior to administration of therapeutic agents in order to lower serum folate levels to physiologically relevant concentrations. Control rats were also maintained on a folate-deficient diet but were not induced to develop arthritis.
The protocol described in Example 32 for arthritis induction was followed. The efficacy of folate-flumethasone (50 nmoles/kg/day) and folate-indomethacin (100 or 250 nmoles/kg/day) against adjuvant-induced arthritis in rats was investigated. Rats were injected intraperitoneally with either saline (control rats) or folate-flumethasone (50 nmoles/kg/day) or folate-indomethacin (100 or 250 nmoles/kg/day) starting at day 4. The sudden increase in swelling of the adjuvant-injected foot is due to influx of neutrophils which have no folate receptors. […]

[7] = absence of unlabeled folic acid
[8] = presence of a 100-fold excess of unlabeled folic acid

folate receptor detection on white blood cells [1]: detectable
Compound: Nc1nc2ncc(CNc3ccc(C(=O)N[C@@H](CCC(=O)O)C(=O)O)cc3)nc2c(=O)[nH]1 [^3H-Folic acid]
folate receptor detection on white blood cells [2]: detectable

Compound: Nc1nc2ncc(CNc3ccc(C(=O)NC(CCC(=O)NCCNC(=S)Nc4ccc(C(=O)O)c(-c5c6ccc(=O)cc-6oc6cc(O)ccc56)c4)C(=O)O)cc3)nc2c(=O)[nH]1 (stereo not drawn) [folate-FITC]
folate receptor detection on peripheral blood monocytes [3]: detectable
folate receptor detection on peripheral blood monocytes [4]: detectable
percentage of human peripheral blood monocytes bound [5, 7]: 45.9%
percentage of human peripheral blood monocytes bound [5, 8]: 2%
binding to human peripheral blood monocytes [5, 7]: bound
folate receptor detection on human peripheral blood monocytes ([5]; healthy humans and patients with rheumatoid arthritis, osteoarthritis, fibromyalgia, FIG. 8): detectable
folate receptor detection on human peripheral blood monocytes ([5]; patients with rheumatoid arthritis over the course of therapy, FIG. 10): detectable
binding to human peripheral blood monocytes [5, 8]: competed

Compound: CC1CC2C3CC(F)C4=CC(=O)C=CC4(C)C3(F)C(O)CC2(C)C1(O)C(=O)COC(=O)OCCSSCC(NC(=O)CCC(NC(=O)c1ccc(NCc2cnc3nc(N)[nH]c(=O)c3n2)cc1)C(=O)O)C(=O)O (stereo not drawn) [folate-flumethasone]
effect on paw swelling (left foot dimensions) after about 7 days ([6]; 50 nmoles/kg/day intraperitoneally starting at day 4, FIG. 9): potent therapeutic effects

Compound: COc1ccc2c(c1)c(CC(=O)OCCSSCC(NC(=O)C(CC(=O)O)NC(=O)C(CC(=O)O)NC(=O)C(CCCNC(=N)N)NC(=O)C(CC(=O)O)NC(=O)CCC(NC(=O)c1ccc(NCc3cnc4nc(N)[nH]c(=O)c4n3)cc1)C(=O)O)C(=O)O)c(C)n2C(=O)c1ccc(Cl)cc1 (stereo not drawn) [folate-indomethacin] ({Pteroyl-γGlu}-DRDDC(X1)-OH; configuration not given here)
effect on paw swelling (left foot dimensions) after about 7 days ([6]; 100 or 250 nmoles/kg/day intraperitoneally starting at day 4, FIG. 9): potent therapeutic effects
